# Measurements published in ChEMBL document CHEMBL4152312, “Identification of fused pyrimidines as interleukin 17 secretion inhibitors” (Eur J Med Chem, 2018).
# What was measured:
# PBMC [1] = test: Inhibition of IL-17 secretion in anti-human CD3 antibody/anti-human CD28 antibody/IL23-stimulated human PBMC after 48 hrs by ELISA; type: functional, cell-based
# PBMC [2] = test: Cytotoxicity against human PBMC assessed as induction of cell death by cell Titer-Glo assay; type: cell-based
# PBMC [3] = test: Inhibition of IL-5 secretion in anti-human CD3 antibody/anti-human CD28 antibody/IL23-stimulated human PBMC after 48 hrs by ELISA; type: functional, cell-based
SMILES,IC50 (PBMC [1]),IC50 (PBMC [2]),IC50 (PBMC [3])
CN(C)CCn1cc(-c2ccc(F)c(CO)c2)c2c(N[C@H](CO)c3ccccc3)ncnc21,> 10 µM,,
COc1cccc(OC)c1-c1cc2c(N[C@H](CO)c3ccccc3)ncnc2s1,7 µM,> 30 µM,
OCc1ccc(-c2cc3c(Nc4ccc(OCc5cccc(F)c5)c(Cl)c4)ncnc3[nH]2)cc1,> 10 µM,,
COc1ccc(-c2cc3c(N[C@H](CO)c4ccccc4)ncnc3s2)cc1,> 10 µM,,
NC(=O)CC(Nc1ncnc2sc(-c3ccc(CO)cc3)cc12)c1ccccc1 (centres undefined),3.3 µM,> 10 µM,
CC(C)c1cc(C(C)C)c(-c2cc3c(N[C@H](C)c4ccccc4)ncnc3s2)c(C(C)C)c1,> 10 µM,,
OCc1ccc(-c2cc3c(Nc4cccc(OCc5ccccc5)c4)ncnc3s2)cc1,> 10 µM,,
COc1ccc(-c2cc3c(N[C@@H](C)CO)ncnc3s2)cc1,> 10 µM,,
OCc1ccc(-c2cc3c(Nc4cccc(OCc5ccccc5)c4)ncnc3[nH]2)cc1,2.2 µM,> 10 µM,
COc1ccc(-c2cc3c(N[C@H](C)C4CCCCC4)ncnc3s2)cc1,> 10 µM,,
Oc1cccc(-c2cc3c(OC(c4ccccc4)C(F)(F)F)ncnc3s2)c1 (centres undefined),> 10 µM,,
COc1ccc(-c2cc3c(NC(CC(N)=O)c4ccccc4)ncnc3s2)cc1 (centres undefined),4 µM,> 30 µM,7.6 to 8 µM
C[C@@H](Nc1ncnc2[nH]cc(-c3ccc(F)c(CNCCN(C)C)c3)c12)c1ccccc1,5 µM,> 10 µM,
COc1cccc(-c2cc3c(N[C@H](C)c4ccccc4)ncnc3s2)c1OC,> 10 µM,,
Fc1ccc(-c2cc3c(Nc4cccc(OCc5ccccc5)c4)ncnc3s2)cc1,> 10 µM,,
COc1cc(CO)ccc1-c1cc2c(N[C@H](CO)c3ccc(F)cc3)ncnc2[nH]1,3.1 µM,> 10 µM,
Fc1ccc(Nc2ncnc3sc(-c4ccc(Br)cc4)cc23)cc1Cl,> 10 µM,,
Fc1ccc(-c2cc3c(Nc4cccc(OCc5ccccc5)c4)ncnc3[nH]2)cc1,> 10 µM,,
CS(=O)(=O)CCNCc1ccc(-c2ccc3ncnc(Nc4ccc(OCc5cccc(F)c5)c(Cl)c4)c3c2)o1 [LAPATINIB],,28 µM,
Oc1cccc(-c2c[nH]c3ncnc(Nc4ccc(OCc5cccc(F)c5)c(Cl)c4)c23)c1,> 10 µM,,

SMILES,IC50 (PBMC [1]),IC50 (PBMC [2]),IC50 (PBMC [3])
COc1cccc(OC)c1-c1cc2c(N[C@H](C)c3ccccc3)ncnc2[nH]1,4.2 µM,> 10 µM,2.5 µM
Cc1cc(C)c(-c2cc3c(N[C@H](C)c4ccccc4)ncnc3s2)c(C)c1,> 10 µM,,
CN(C)CCn1cc(-c2cccc(O)c2)c2c(N[C@H](CO)c3ccccc3)ncnc21,> 10 µM,,
C[C@@H](Nc1ncnc2sc(-c3ccccc3)cc12)c1ccccc1,> 10 µM,,
COc1ccccc1-c1cc2c(N[C@H](C)c3ccccn3)ncnc2s1,> 10 µM,,
COc1cc(CO)ccc1-c1cc2c(Nc3ccc(OCc4cccc(F)c4)c(Cl)c3)ncnc2s1,9 µM,28 µM,> 30 µM
"CC(CO)Nc1ncnc2c1c(-c1cccc(O)c1)cn2CCN(C)C (single isomer, unassigned)",> 10 µM,,
Oc1ccccc1-c1cc2c(OC(c3ccccc3)C(F)(F)F)ncnc2s1 (centres undefined),> 10 µM,,
COc1cc(CO)ccc1-c1cc2c(N[C@H](CO)c3ccccc3)ncnc2s1,4.6 µM,> 30 µM,14 µM
CN(C)CCn1cc(-c2ccc(CO)cc2)c2c(N[C@H](CO)c3ccccc3)ncnc21,> 10 µM,,
C=Cc1ccc(-c2cc3c(N[C@H](C)c4ccccc4)ncnc3s2)cc1,> 10 µM,,
CN(C)CCn1cc(-c2ccc(O)cc2)c2c(N[C@H](CO)c3ccccc3)ncnc21,> 10 µM,,
Cn1cc(-c2cccc(O)c2)c2c(N[C@H](CO)c3ccccc3)ncnc21,2.8 µM,> 10 µM,
Oc1ccc(-c2cc3c(OC(c4ccccc4)C(F)(F)F)ncnc3s2)cc1 (centres undefined),> 10 µM,,
COc1cc(F)ccc1-c1cc2c(N[C@H](CO)c3ccccc3)ncnc2[nH]1,4.1 to 4.3 µM,> 10 µM,1.1 µM
CC(Nc1ncnc2[nH]c(-c3ccc(CO)cc3)cc12)C12CC3CC(CC(C3)C1)C2 (centres undefined),5 µM,> 10 µM,
C[C@@H](Nc1ncnc2[nH]cc(-c3ccc(F)c(CO)c3)c12)c1ccccc1,3.1 µM,> 10 µM,
COc1ccc(-c2cc3c(N[C@H](CCO)c4ccccc4)ncnc3s2)cc1,> 10 µM,,
COc1cc(CO)ccc1-c1cc2c(N[C@H](CO)c3ccccc3)ncnc2[nH]1,3.1 to 3.2 µM,> 30 µM,2.3 to 3.5 µM
